Patent US20120220600A1, “N-Oxide of 3-(2,6-dichloro-3,5-dimethoxy-phenyl) -1--1-methyl-urea” (priority 2009, published 2012)
Values after ≈ are worked out from the molar mass of the structure shown.

Tests used:
[1] = In vitro metabolic stability in monkey liver microsomes; assay type: in vitro ADME; conditions: for microsomal CLint at 1 μM: monkey, liver microsomes
Procedure: (§1) The metabolism of drugs occurs mainly in the liver, which contains a wide variety of metabolic enzymes at concentrations higher than those observed in other organs. Metabolic stability or clearance (CL), particularly hepatic clearance (CLh), is a factor in determining drug concentration in blood. Generally, the higher the metabolic stability of a compound is, the lower the clearance of the compound.
(§2) The metabolic stability of each of Compounds 1 and 2 were determined at a concentration of 1 μM in mouse, rat, dog, monkey and human hepatic microsomal preparations. The compound tested, microsomal protein, and co-factors were combined, in duplicate, and incubated under appropriate conditions. Aliquots were removed at 0, 10 and 30 min, centrifuged and the supernatants analyzed by LC/MS/MS. Based on the percentage of the test compound remaining relative to the 0 min time point, the in vitro elimination rate constant, in vitro half-life (t1/2) and in vitro intrinsic clearance (CLint) parameters were calculate which allow for predicting the CLh values.

[2] = In vitro metabolic stability in rat liver microsomes; assay type: in vitro ADME; conditions: for microsomal CLint at 1 μM: rat, liver microsomes
Procedure: as §1, §2

[3] = In vitro metabolic stability in mouse liver microsomes; assay type: in vitro ADME; conditions: for microsomal CLint at 1 μM: mouse, liver microsomes
Procedure: as §1, §2

[4] = Solubility in buffer (pH 1); assay type: physicochemical; conditions: pH 1, aqueous buffer
Text: (§3) Certain physicochemical properties of the compounds, as measured, are provided below: […]

[5] = In vitro metabolic stability in human liver microsomes; assay type: in vitro ADME; conditions: for CLint Rank: 1 μM
Procedure: as §1, §2

Caco-2 cell monolayers = assay: Permeability across Caco-2 cell monolayers; assay type: in vitro ADME, human; conditions: for Mechanism: Caco-2, based on B-A/A-B and clogP; for Permeability Ranking: Caco-2, based on Papp A-B
Procedure: (§4) The permeability of Compounds 1 and 2 across the intestinal barrier and the involvement of drug efflux transporters such as P-glycoprotein (P-gp, MDR-1) were assessed in vitro using the Caco-2 cell line. […] Caco-2 cells were seeded on PET (polyethylene terephthalate) filters in a 96 well format and cultured for 18-25 days to develop monolayers. Test compound solutions (10 μM in transport buffer) were added to either the apical (A) or basolateral (B) side of the Caco-2 cell monolayer to measure the membrane permeability from the A to B compartments [Papp(A-B)] or from the B to A compartments [Papp(B-A]. The assay was carried out in HBSS (Hank's Balanced Salts) buffer, pH 7.4 (for both sides) for 120 min at 37° C. Samples were taken from apical or basolateral compartments at scheduled times (0 min and 120 min) and quantified by LC/MS/MS. The results are presented in Table 4.

[6] = Permeability across Caco-2 cell monolayers; assay type: in vitro ADME, human; conditions: human, Caco-2, 10 μM, pH 7.4, 120 min; for Papp A→B at 120 min, 10 μM / Papp B→A at 120 min, 10 μM: 37° C.; for Papp A→B at 120 min, 10 μM: apical to basolateral; for Papp B→A at 120 min, 10 μM: basolateral to apical; for efflux ratio at 120 min, 10 μM: read-out: Papp B-A/A-B
Procedure: as §4

[7] = Ionization constants (pKa1/pKa2); assay type: physicochemical; conditions: ionization constant for acidity
Text: as §3

[8] = In vitro metabolic stability in dog liver microsomes; assay type: in vitro ADME; conditions: for microsomal CLint at 1 μM: dog, liver microsomes
Procedure: as §1, §2

hERG channels = target: T1, hERG channels (Homo sapiens, UniProt Q12809); assay: hERG radioligand binding assay ([3H]dofetilide competition); conditions: [3H]dofetilide binding, HEK293 cell membranes stably transfected with hERG
T1 construct: expressed in transfected cells; host or cells: HEK293 (stably transfected), membrane preparation
T1 sequence (Q12809 whole entry): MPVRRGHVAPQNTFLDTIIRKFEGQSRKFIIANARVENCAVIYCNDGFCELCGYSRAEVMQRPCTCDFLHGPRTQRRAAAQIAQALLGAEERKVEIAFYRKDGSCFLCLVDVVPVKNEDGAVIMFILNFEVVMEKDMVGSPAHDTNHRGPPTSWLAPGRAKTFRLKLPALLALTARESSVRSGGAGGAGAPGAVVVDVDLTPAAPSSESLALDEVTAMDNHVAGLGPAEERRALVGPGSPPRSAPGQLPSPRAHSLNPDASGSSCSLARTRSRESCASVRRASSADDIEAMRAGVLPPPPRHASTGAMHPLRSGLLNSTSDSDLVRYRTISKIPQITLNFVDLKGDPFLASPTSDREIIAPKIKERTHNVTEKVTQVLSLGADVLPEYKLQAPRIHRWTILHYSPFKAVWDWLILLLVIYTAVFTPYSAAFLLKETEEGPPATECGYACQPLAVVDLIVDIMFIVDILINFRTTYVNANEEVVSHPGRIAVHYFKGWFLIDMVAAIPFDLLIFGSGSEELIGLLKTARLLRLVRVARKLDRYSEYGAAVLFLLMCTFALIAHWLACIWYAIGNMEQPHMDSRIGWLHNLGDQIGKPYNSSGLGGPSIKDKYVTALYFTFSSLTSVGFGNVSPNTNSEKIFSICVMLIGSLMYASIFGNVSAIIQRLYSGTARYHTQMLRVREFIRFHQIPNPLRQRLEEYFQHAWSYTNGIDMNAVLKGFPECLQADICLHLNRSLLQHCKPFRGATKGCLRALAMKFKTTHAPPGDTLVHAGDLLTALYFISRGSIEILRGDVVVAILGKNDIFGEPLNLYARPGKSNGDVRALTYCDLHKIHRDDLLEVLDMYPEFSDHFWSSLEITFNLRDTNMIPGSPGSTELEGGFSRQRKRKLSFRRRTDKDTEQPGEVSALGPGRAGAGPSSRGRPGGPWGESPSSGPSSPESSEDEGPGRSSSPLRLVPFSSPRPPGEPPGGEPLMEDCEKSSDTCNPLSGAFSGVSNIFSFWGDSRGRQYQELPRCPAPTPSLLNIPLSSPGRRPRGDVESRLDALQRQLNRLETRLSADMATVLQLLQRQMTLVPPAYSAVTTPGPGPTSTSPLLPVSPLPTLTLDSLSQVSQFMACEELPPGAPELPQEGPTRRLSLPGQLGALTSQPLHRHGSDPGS
Procedure: The ability of Compounds 1 and 2 to inhibit the hERG (potassium channel) activity was tested using a radioligand binding assay in which test compounds competed for [^3H]dofetilide binding to a membrane preparation of HEK293 cell membranes stably transfected with hERG channels.

SMILES	half-life at 1 μM [1]	microsomal CLint at 1 μM ([1]; read-out: CLint)	half-life at 1 μM [2]	microsomal CLint at 1 μM ([2]; read-out: CLint)	half-life at 1 μM [3]	microsomal CLint at 1 μM ([3]; read-out: CLint)	solubility [4]	half-life at 1 μM [5]	microsomal CLint at 1 μM [5]	CLint Rank [5]	Mechanism (Caco-2 cell monolayers)	Permeability Ranking (Caco-2 cell monolayers)	Papp A→B at 120 min, 10 μM [6]	Papp B→A at 120 min, 10 μM [6]	efflux ratio at 120 min, 10 μM [6]	pKa1 [7]	pKa2 [7]	half-life at 1 μM [8]	microsomal CLint at 1 μM ([8]; read-out: CLint)	IC50 (hERG channels)	other results
CC[N+]1([O-])CCN(c2ccc(Nc3cc(N(C)C(=O)Nc4c(Cl)c(OC)cc(OC)c4Cl)ncn3)cc2)CC1 [Compound 1, N-Oxide of 3-(2,6-Dichloro-3,5-dimethoxy-phenyl)-1-{6-[4-(4-ethyl-piperazin-1-yl)-phenylamino]-pyrimidin-4-yl}-1-methyl-urea]	35.7 min	38.9 µL/min/mg	46.8 min	29.6 µL/min/mg	55.2 min	25.1 µL/min/mg	700 µM (≈ 404 µg/mL)	37.4 min	37.1 µL/min/mg	low	Efflux (Efflux: B-A/A-B ≧3)	Low	0.47 ×10⁻⁶ cm/s	9.51 ×10⁻⁶ cm/s	20.2	4.5	3.2	30.1 min	46.1 µL/min/mg	10.2 µM	CLint Rank ([1]; 1 μM): low; CLint Rank ([2]; 1 μM): low; CLint Rank ([3]; 1 μM): low; CLint Rank ([8]; 1 μM): low
CCN1CCN(c2ccc(Nc3cc(N(C)C(=O)Nc4c(Cl)c(OC)cc(OC)c4Cl)ncn3)cc2)CC1 [Compound 2, 3-(2,6-Dichloro-3,5-dimethoxy-phenyl)-1-{6-[4-(4-ethyl-piperazin-1-yl)-phenylamino]-pyrimidin-4-yl}-1-methyl-urea]	3.8 min	364 µL/min/mg	15.4 min	90.3 µL/min/mg	10.3 min	134 µL/min/mg	2000 µM (≈ 1120 µg/mL)	35.2 min	39.4 µL/min/mg	low	Passive	Medium	1.69 ×10⁻⁶ cm/s	1.59 ×10⁻⁶ cm/s	0.94	8.2	3.4	3.5 min	395 µL/min/mg	3 µM	microsomal CLint at 1 μM ([1]; read-out: CLint Rank): > 150 µL/min/mg; microsomal CLint at 1 μM ([2]; read-out: CLint Rank): 50 to 150 µL/min/mg; microsomal CLint at 1 μM ([3]; read-out: CLint Rank): 50 to 150 µL/min/mg; microsomal CLint at 1 μM ([8]; read-out: CLint Rank): > 150 µL/min/mg
